Tests used:
Format in all cases: functional
HCT-15 [1] = test: Antiproliferative activity against human HCT15 cells at 10 uM by SRB assay
HCT-15 [2] = test: Antiproliferative activity against human HCT15 cells at 1 uM by SRB assay
MDA-MB-231 [3] = test: Antiproliferative activity against human MDA-MB-231 cells at 3 uM by SRB assay
PC-3 [4] = test: Antiproliferative activity against human PC3 cells at 0.3 uM by SRB assay
ACHN [5] = test: Antiproliferative activity against human ACHN cells at 0.3 uM by SRB assay
PC-3 [6] = test: Antiproliferative activity against human PC3 cells at 1 uM by SRB assay
NCI-H23 [7] = test: Antiproliferative activity against human NCI-H23 cells by SRB assay
ACHN [8] = test: Antiproliferative activity against human ACHN cells by SRB assay
NUGC-3 [9] = test: Antiproliferative activity against human NUGC3 cells at 3 uM by SRB assay
HCT-15 [10] = test: Antiproliferative activity against human HCT15 cells at 3 uM by SRB assay
MDA-MB-231 [11] = test: Antiproliferative activity against human MDA-MB-231 cells at 1 uM by SRB assay
MDA-MB-231 [12] = test: Antiproliferative activity against human MDA-MB-231 cells at 0.3 uM by SRB assay
ACHN [13] = test: Antiproliferative activity against human ACHN cells at 1 uM by SRB assay
MDA-MB-231 [14] = test: Antiproliferative activity against human MDA-MB-231 cells at 0.1 uM by SRB assay
NUGC-3 [15] = test: Antiproliferative activity against human NUGC3 cells at 0.1 uM by SRB assay
NUGC-3 [16] = test: Antiproliferative activity against human NUGC3 cells at 1 uM by SRB assay
HCT-15 [17] = test: Antiproliferative activity against human HCT15 cells at 0.1 uM by SRB assay
ACHN [18] = test: Antiproliferative activity against human ACHN cells at 3 uM by SRB assay
NCI-H23 [19] = test: Antiproliferative activity against human NCI-H23 cells at 0.1 uM by SRB assay
PC-3 [20] = test: Antiproliferative activity against human PC3 cells at 0.1 uM by SRB assay
HCT-15 [21] = test: Antiproliferative activity against human HCT15 cells by SRB assay
NUGC-3 [22] = test: Antiproliferative activity against human NUGC3 cells at 0.3 uM by SRB assay
NCI-H23 [23] = test: Antiproliferative activity against human NCI-H23 cells at 1 uM by SRB assay
NCI-H23 [24] = test: Antiproliferative activity against human NCI-H23 cells at 10 uM by SRB assay
ACHN [25] = test: Antiproliferative activity against human ACHN cells at 10 uM by SRB assay
NUGC-3 [26] = test: Antiproliferative activity against human NUGC3 cells at 10 uM by SRB assay
PC-3 [27] = test: Antiproliferative activity against human PC3 cells by SRB assay
NCI-H23 [28] = test: Antiproliferative activity against human NCI-H23 cells at 3 uM by SRB assay
PC-3 [29] = test: Antiproliferative activity against human PC3 cells at 3 uM by SRB assay
NCI-H23 [30] = test: Antiproliferative activity against human NCI-H23 cells at 0.3 uM by SRB assay
MDA-MB-231 [31] = test: Antiproliferative activity against human MDA-MB-231 cells by SRB assay
PC-3 [32] = test: Antiproliferative activity against human PC3 cells at 10 uM by SRB assay
HCT-15 [33] = test: Antiproliferative activity against human HCT15 cells at 0.3 uM by SRB assay
ACHN [34] = test: Antiproliferative activity against human ACHN cells at 0.1 uM by SRB assay
MDA-MB-231 [35] = test: Antiproliferative activity against human MDA-MB-231 cells at 10 uM by SRB assay
NUGC-3 [36] = test: Antiproliferative activity against human NUGC3 cells by SRB assay

Structure (SMILES) | growth, % of control at 10 µM (HCT-15 [1]) [%] | growth, % of control at 1 µM (HCT-15 [2]) [%] | growth, % of control at 3 µM (MDA-MB-231 [3]) [%] | growth, % of control at 0.3 µM (PC-3 [4]) [%] | growth, % of control at 0.3 µM (ACHN [5]) [%] | growth, % of control at 1 µM (PC-3 [6]) [%] | GI50 (NCI-H23 [7]) [nM] | GI50 (ACHN [8]) [nM] | growth, % of control at 3 µM (NUGC-3 [9]) [%] | growth, % of control at 3 µM (HCT-15 [10]) [%] | growth, % of control at 1 µM (MDA-MB-231 [11]) [%] | growth, % of control at 0.3 µM (MDA-MB-231 [12]) [%] | growth, % of control at 1 µM (ACHN [13]) [%] | growth, % of control at 0.1 µM (MDA-MB-231 [14]) [%] | growth, % of control at 0.1 µM (NUGC-3 [15]) [%] | growth, % of control at 1 µM (NUGC-3 [16]) [%] | growth, % of control at 0.1 µM (HCT-15 [17]) [%] | growth, % of control at 3 µM (ACHN [18]) [%] | growth, % of control at 0.1 µM (NCI-H23 [19]) [%] | growth, % of control at 0.1 µM (PC-3 [20]) [%] | also measured
CCCCCCCCCCCCCCCCCC(=O)NCC(C)(C)C[N+](C)(C)Cc1ccccc1 | 85.2 | 101 | 58.9 | 95.6 | 94 | 38.5 | 910 | 2230 | 40.4 | 100 | 86 | 91.4 | 87.4 | 95.5 | 96.5 | 82 | 111 | 74.1 | 93.4 | 101 | GI50 (HCT-15 [21]): > 10000 nM; growth, % of control at 0.3 µM (NUGC-3 [22]): 101%; growth, % of control at 1 µM (NCI-H23 [23]): 70.6%; growth, % of control at 10 µM (NCI-H23 [24]): -25.8%; growth, % of control at 10 µM (ACHN [25]): 0.64%; growth, % of control at 10 µM (NUGC-3 [26]): -11%; GI50 (PC-3 [27]): 510 nM; growth, % of control at 3 µM (NCI-H23 [28]): 34.9%; growth, % of control at 3 µM (PC-3 [29]): -5.4%; growth, % of control at 0.3 µM (NCI-H23 [30]): 80.7%; GI50 (MDA-MB-231 [31]): 2150 nM; growth, % of control at 10 µM (PC-3 [32]): -38.9%; growth, % of control at 0.3 µM (HCT-15 [33]): 102%; growth, % of control at 0.1 µM (ACHN [34]): 101%; growth, % of control at 10 µM (MDA-MB-231 [35]): 20.6%; GI50 (NUGC-3 [36]): 1320 nM
C=CC[N+](C)(C)CC(C)(C)CNC(=O)CCCCCCCCCCCCCCCCC | 61.7 | 99 | 48.3 | 91 | 93.5 | 33.7 | 900 | 1750 | 28.5 | 85.5 | 80.8 | 88.8 | 85.1 | 94.3 | 92.3 | 65.2 | 102 | 60.4 | 92.8 | 94.9 | GI50 (HCT-15 [21]): > 10000 nM; growth, % of control at 0.3 µM (NUGC-3 [22]): 89.9%; growth, % of control at 1 µM (NCI-H23 [23]): 75.3%; growth, % of control at 10 µM (NCI-H23 [24]): -40%; growth, % of control at 10 µM (ACHN [25]): 3.8%; growth, % of control at 10 µM (NUGC-3 [26]): -5.72%; GI50 (PC-3 [27]): 470 nM; growth, % of control at 3 µM (NCI-H23 [28]): 29.4%; growth, % of control at 3 µM (PC-3 [29]): -27.7%; growth, % of control at 0.3 µM (NCI-H23 [30]): 93.7%; GI50 (MDA-MB-231 [31]): 1640 nM; growth, % of control at 10 µM (PC-3 [32]): -45.4%; growth, % of control at 0.3 µM (HCT-15 [33]): 99.8%; growth, % of control at 0.1 µM (ACHN [34]): 93.2%; growth, % of control at 10 µM (MDA-MB-231 [35]): 25%; GI50 (NUGC-3 [36]): 770 nM
CCCCCCCCCCCCCCCC(=O)N(C)CC[N+](CC)(CC)CC | 3.4 | 56.7 | 12.6 | 71.9 | 78.5 | 12.6 | 1110 | 270 | -43.8 | 24.6 | 33.1 | 80.4 | 16.7 | 94.3 | 99.2 | -14.6 | 89.1 | -15.6 | 84 | 87.4 | GI50 (HCT-15 [21]): 610 nM; growth, % of control at 0.3 µM (NUGC-3 [22]): 53.4%; growth, % of control at 1 µM (NCI-H23 [23]): 72.7%; growth, % of control at 10 µM (NCI-H23 [24]): 8.5%; growth, % of control at 10 µM (ACHN [25]): -42.5%; growth, % of control at 10 µM (NUGC-3 [26]): -50%; GI50 (PC-3 [27]): 230 nM; growth, % of control at 3 µM (NCI-H23 [28]): 45.2%; growth, % of control at 3 µM (PC-3 [29]): -5.6%; growth, % of control at 0.3 µM (NCI-H23 [30]): 84.9%; GI50 (MDA-MB-231 [31]): 360 nM; growth, % of control at 10 µM (PC-3 [32]): -24.2%; growth, % of control at 0.3 µM (HCT-15 [33]): 83.5%; growth, % of control at 0.1 µM (ACHN [34]): 106%; growth, % of control at 10 µM (MDA-MB-231 [35]): -17.3%; GI50 (NUGC-3 [36]): 160 nM
C=CC[N+](CC)(CC)CCN(C)C(=O)CCCCCCCCCCCCC | 57.9 | 96.3 | 6.6 | 74.9 | 42.6 | 12.2 | 240 | 100 | -3.5 | 85.1 | 28.7 | 82.5 | 16.8 | 93.2 | 109 | 1.1 | 97.4 | 8.6 | 88 | 91.2 | GI50 (HCT-15 [21]): > 10000 nM; growth, % of control at 0.3 µM (NUGC-3 [22]): 45.3%; growth, % of control at 1 µM (NCI-H23 [23]): 24.2%; growth, % of control at 10 µM (NCI-H23 [24]): -10%; growth, % of control at 10 µM (ACHN [25]): -9%; growth, % of control at 10 µM (NUGC-3 [26]): -7.8%; GI50 (PC-3 [27]): 210 nM; growth, % of control at 3 µM (NCI-H23 [28]): 7.8%; growth, % of control at 3 µM (PC-3 [29]): -6%; growth, % of control at 0.3 µM (NCI-H23 [30]): 74.2%; GI50 (MDA-MB-231 [31]): 300 nM; growth, % of control at 10 µM (PC-3 [32]): -21.6%; growth, % of control at 0.3 µM (HCT-15 [33]): 96.8%; growth, % of control at 0.1 µM (ACHN [34]): 69%; growth, % of control at 10 µM (MDA-MB-231 [35]): -11.6%; GI50 (NUGC-3 [36]): 140 nM
